Measurements: PubChem BioAssay (NCI)
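At the GI50, growth is halved. TGI: total growth inhibition.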

What was measured:
Assay in all cases: NCI-60 cell line screen, 384-well format; in the data active = GI50 below about 0.43 µM; inactive = the rest
786-0 renal = system: 786-0 renal
A498 renal = system: A498 renal
A549 NSCLC = system: A549 NSCLC
ACHN renal = system: ACHN renal
BT-549 breast = system: BT-549 breast
CAKI-1 renal = system: CAKI-1 renal
CCRF-CEM leukemia = system: CCRF-CEM leukemia
COLO 205 colon = system: COLO 205 colon
DU-145 prostate = system: DU-145 prostate
EKVX NSCLC = system: EKVX NSCLC
HCC-2998 colon = system: HCC-2998 colon
HCT-116 colon = system: HCT-116 colon
HL-60(TB) leukemia = system: HL-60(TB) leukemia
HOP-92 NSCLC = system: HOP-92 NSCLC
HS 578T breast = system: HS 578T breast
HT29 colon = system: HT29 colon
IGROV1 ovarian = system: IGROV1 ovarian
K-562 leukemia = system: K-562 leukemia
KM12 colon = system: KM12 colon
MCF7 breast = system: MCF7 breast
MDA-MB-231 breast = system: MDA-MB-231 breast
MDA-MB-435 melanoma = system: MDA-MB-435 melanoma
MDA-MB-468 breast = system: MDA-MB-468 breast
MOLT-4 leukemia = system: MOLT-4 leukemia
NCI-H226 lung = system: NCI-H226 lung
NCI-H23 lung = system: NCI-H23 lung
NCI-H322M lung = system: NCI-H322M lung
NCI-H460 NSCLC = system: NCI-H460 NSCLC
NCI-H522 lung = system: NCI-H522 lung
NCI/ADR-RES ovarian = system: NCI/ADR-RES ovarian
OVCAR-3 ovarian = system: OVCAR-3 ovarian
OVCAR-4 ovarian = system: OVCAR-4 ovarian
OVCAR-5 ovarian = system: OVCAR-5 ovarian
OVCAR-8 ovarian = system: OVCAR-8 ovarian
PC-3 prostate = system: PC-3 prostate
RPMI-8226 leukemia = system: RPMI-8226 leukemia
RXF 393 renal = system: RXF 393 renal
SF-268 CNS = system: SF-268 CNS
SK-MEL-2 melanoma = system: SK-MEL-2 melanoma
SK-MEL-28 melanoma = system: SK-MEL-28 melanoma
SK-MEL-5 melanoma = system: SK-MEL-5 melanoma
SK-OV-3 ovarian = system: SK-OV-3 ovarian
SN12C renal = system: SN12C renal
SNB-19 CNS = system: SNB-19 CNS
SR leukemia = system: SR leukemia
SW-620 colon = system: SW-620 colon
T-47D breast = system: T-47D breast
TK-10 renal = system: TK-10 renal
U251 glioblastoma = system: U251 glioblastoma
UACC-257 melanoma = system: UACC-257 melanoma
UO-31 renal = system: UO-31 renal

CC[C@@H]1C(=O)N(C)c2cnc(Nc3ccc(C(=O)NC4CCN(C)CC4)cc3OC)nc2N1C1CCCC1
121 nM: TGI (A549 NSCLC)
85.6 nM: TGI (U251 glioblastoma)
1560 nM: TGI (ACHN renal)
1270 nM: TGI (CAKI-1 renal)
1090 nM: TGI (HT29 colon)
1920 nM: TGI (NCI-H226 lung) | TGI (SK-MEL-28 melanoma)
1480 nM: TGI (UO-31 renal)
224 nM: TGI (IGROV1 ovarian)
2460 nM: TGI (PC-3 prostate)
1700 nM: TGI (UACC-257 melanoma)
1400 nM: TGI (NCI-H322M lung)
149 nM: TGI (786-0 renal)
166 nM: TGI (T-47D breast)
414 nM: TGI (SF-268 CNS)
< 10 nM: TGI (BT-549 breast) | TGI (CCRF-CEM leukemia) | TGI (COLO 205 colon) | TGI (DU-145 prostate) | TGI (HCC-2998 colon) | TGI (HL-60(TB) leukemia) | TGI (HS 578T breast) | TGI (K-562 leukemia) | TGI (KM12 colon) | TGI (MDA-MB-435 melanoma) | TGI (MDA-MB-468 breast) | TGI (MOLT-4 leukemia) | TGI (NCI-H23 lung) | TGI (NCI-H460 NSCLC) | TGI (NCI-H522 lung) | TGI (OVCAR-3 ovarian) | TGI (OVCAR-8 ovarian) | TGI (RPMI-8226 leukemia) | TGI (RXF 393 renal) | TGI (SK-MEL-2 melanoma) | TGI (SK-MEL-5 melanoma) | TGI (SR leukemia) | TGI (SW-620 colon)
226 nM: TGI (OVCAR-5 ovarian)
1050 nM: TGI (HOP-92 NSCLC)
129 nM: TGI (OVCAR-4 ovarian)
904 nM: TGI (MCF7 breast)
62.1 nM: TGI (EKVX NSCLC)
591 nM: TGI (NCI/ADR-RES ovarian)
235 nM: TGI (TK-10 renal)
269 nM: TGI (SNB-19 CNS)
active: GI50 ([…]-0 renal) < 10 nM | GI50 (A498 renal) < 10 nM | GI50 (A549 NSCLC) < 10 nM | GI50 (ACHN renal) 66.1 nM | GI50 (BT-549 breast) < 10 nM | GI50 (CAKI-1 renal) < 10 nM | GI50 (CCRF-CEM leukemia) < 10 nM | GI50 (COLO 205 colon) < 10 nM | GI50 (DU-145 prostate) < 10 nM | GI50 (EKVX NSCLC) < 10 nM | GI50 (HCC-2998 colon) < 10 nM | GI50 (HCT-116 colon) < 10 nM | GI50 (HL-60(TB) leukemia) < 10 nM | GI50 (HOP-92 NSCLC) < 10 nM | GI50 (HS 578T breast) < 10 nM | GI50 (HT29 colon) < 10 nM | GI50 (IGROV1 ovarian) < 10 nM | GI50 (K-562 leukemia) < 10 nM | GI50 (KM12 colon) < 10 nM | GI50 (MCF7 breast) < 10 nM | GI50 (MDA-MB-231 breast) < 10 nM | GI50 (MDA-MB-435 melanoma) < 10 nM | GI50 (MDA-MB-468 breast) < 10 nM | GI50 (MOLT-4 leukemia) < 10 nM | GI50 (NCI-H226 lung) 224 nM | GI50 (NCI-H23 lung) < 10 nM | GI50 (NCI-H322M lung) < 10 nM | GI50 (NCI-H460 NSCLC) < 10 nM | GI50 (NCI-H522 lung) < 10 nM | GI50 (NCI/ADR-RES ovarian) 196 nM | GI50 (OVCAR-3 ovarian) < 10 nM | GI50 (OVCAR-4 ovarian) 10.3 nM | GI50 (OVCAR-5 ovarian) < 10 nM | GI50 (OVCAR-8 ovarian) < 10 nM | GI50 (PC-3 prostate) < 10 nM | GI50 (RPMI-8226 leukemia) < 10 nM | GI50 (RXF 393 renal) < 10 nM | GI50 (SF-268 CNS) < 10 nM | GI50 (SK-MEL-2 melanoma) < 10 nM | GI50 (SK-MEL-28 melanoma) < 10 nM | GI50 (SK-MEL-5 melanoma) < 10 nM | GI50 (SK-OV-3 ovarian) < 10 nM | GI50 (SN12C renal) < 10 nM | GI50 (SNB-19 CNS) < 10 nM | GI50 (SR leukemia) < 10 nM | GI50 (SW-620 colon) < 10 nM | GI50 (T-47D breast) < 10 nM | GI50 (TK-10 renal) < 10 nM | GI50 (U251 glioblastoma) < 10 nM | GI50 (UACC-257 melanoma) < 10 nM | GI50 (UO-31 renal) 77.1 nM
814 nM: TGI (A498 renal)
107 nM: TGI (SK-OV-3 ovarian)
135 nM: TGI (HCT-116 colon)
880 nM: TGI (SN12C renal)
1350 nM: TGI (MDA-MB-231 breast)
